Test results published in PubChem BioAssay (NCI).
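A five-concentration, 48-hour dose response in 96-well plates underlies each endpoint, interpolated linearly between surrounding concentrations. GI50: concentration for 50% inhibition of growth. TGI marks complete inhibition of growth.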

Experiments:
Assay in all cases: DTP human tumour cell line panel, 48 h
[1] = test system: 786-0 renal
[2] = test system: A498 renal
[3] = test system: A549 NSCLC
[4] = test system: ACHN renal
[5] = test system: BT-549 breast
[6] = test system: CAKI-1 renal
[7] = test system: CCRF-CEM leukemia
[8] = test system: COLO 205 colon
[9] = test system: DU-145 prostate
[10] = test system: EKVX NSCLC
[11] = test system: HCC-2998 colon
[12] = test system: HCT-116 colon
[13] = test system: HCT-15 colon
[14] = test system: HL-60(TB) leukemia
[15] = test system: HOP-62 NSCLC
[16] = test system: HOP-92 NSCLC
[17] = test system: HS 578T breast
[18] = test system: HT29 colon
[19] = test system: IGROV1 ovarian
[20] = test system: K-562 leukemia
[21] = test system: KM12 colon
[22] = test system: LOX IMVI melanoma
[23] = test system: M14 melanoma
[24] = test system: MALME-3M melanoma
[25] = test system: MCF7 breast
[26] = test system: MDA-MB-231 breast
[27] = test system: MDA-MB-435
[28] = test system: MDA-MB-468 breast
[29] = test system: MOLT-4 leukemia
[30] = test system: NCI-H226 lung
[31] = test system: NCI-H23 lung
[32] = test system: NCI-H460 lung
[33] = test system: NCI-H522 lung
[34] = test system: NCI/ADR-RES ovarian
[35] = test system: OVCAR-3 ovarian
[36] = test system: OVCAR-4 ovarian
[37] = test system: OVCAR-5 ovarian
[38] = test system: OVCAR-8 ovarian
[39] = test system: PC-3 prostate
[40] = test system: RPMI-8226 leukemia
[41] = test system: RXF 393 renal
[42] = test system: SF-268 CNS
[43] = test system: SF-295 CNS
[44] = test system: SF-539 CNS
[45] = test system: SK-MEL-2 melanoma
[46] = test system: SK-MEL-28 melanoma
[47] = test system: SK-MEL-5 melanoma
[48] = test system: SK-OV-3 ovarian
[49] = test system: SN12C renal
[50] = test system: SNB-19 CNS
[51] = test system: SNB-75 CNS
[52] = test system: SR leukemia
[53] = test system: SW-620 colon
[54] = test system: T-47D breast
[55] = test system: TK-10 renal
[56] = test system: U251 CNS
[57] = test system: UACC-257 melanoma
[58] = test system: UACC-62 melanoma
[59] = test system: UO-31 renal

SMILES: CN1CCN(c2ccc3c(c2)nc(NNC(=O)c2cnccn2)c2cccn23)CC1
- GI50 [1]: 401 nM
- TGI [1]: 2400 nM
- GI50 [2]: 1770 nM
- TGI [2]: 3320 nM
- GI50 [3]: 768 nM
- TGI [3]: 12100 nM
- GI50 [4]: 256 nM
- TGI [4]: 1740 nM
- GI50 [5]: 849 nM
- TGI [5]: 13400 nM
- GI50 [6]: 463 nM
- TGI [6]: 5270 nM
- GI50 [7]: 182 nM
- TGI [7]: 1980 nM
- GI50 [8]: 445 nM
- TGI [8]: 9940 nM
- GI50 [9]: 912 nM
- TGI [9]: 8580 nM
- GI50 [10]: 277 nM
- TGI [10]: 3470 nM
- GI50 [11]: 453 nM
- TGI [11]: 5800 nM
- GI50 [12]: 259 nM
- TGI [12]: 5610 nM
- GI50 [13]: 109 nM
- TGI [13]: 1790 nM
- GI50 [14]: 175 nM
- TGI [14]: 1650 nM
- GI50 [15]: 361 nM
- TGI [15]: 11300 nM
- GI50 [16]: 564 nM
- TGI [16]: 5540 nM
- GI50 [17]: 3600 nM
- TGI [17]: 70300 nM
- GI50 [18]: 505 nM
- TGI [18]: 4560 nM
- GI50 [19]: 413 nM
- TGI [19]: 10700 nM
- GI50 [20]: 631 nM
- TGI [20]: 11600 nM
- GI50 [21]: 359 nM
- TGI [21]: 14900 nM
- GI50 [22]: 203 nM
- TGI [22]: 6250 nM
- GI50 [23]: 517 nM
- TGI [23]: 3870 nM
- GI50 [24]: 1620 nM
- TGI [24]: 6990 nM
- GI50 [25]: 697 nM
- TGI [25]: 7500 nM
- GI50 [26]: 607 nM
- TGI [26]: 6950 nM
- GI50 [27]: 1960 nM
- TGI [27]: 18400 nM
- GI50 [28]: 324 nM
- TGI [28]: 2370 nM
- GI50 [29]: 244 nM
- GI50 [30]: 801 nM
- TGI [30]: 3120 nM
- GI50 [31]: 801 nM
- TGI [31]: 12300 nM
- GI50 [32]: 229 nM
- TGI [32]: 4720 nM
- GI50 [33]: 944 nM
- TGI [33]: 6690 nM
- GI50 [34]: 829 nM
- TGI [34]: 2970 nM
- GI50 [35]: 406 nM
- TGI [35]: 5840 nM
- GI50 [36]: 605 nM
- TGI [36]: 12900 nM
- GI50 [37]: 1180 nM
- TGI [37]: 12100 nM
- GI50 [38]: 383 nM
- TGI [38]: 7010 nM
- GI50 [39]: 386 nM
- TGI [39]: 8510 nM
- GI50 [40]: 756 nM
- TGI [40]: 12700 nM
- GI50 [41]: 1060 nM
- TGI [41]: 3350 nM
- GI50 [42]: 479 nM
- TGI [42]: 13200 nM
- GI50 [43]: 229 nM
- TGI [43]: 3150 nM
- GI50 [44]: 645 nM
- TGI [44]: 6830 nM
- GI50 [45]: 1210 nM
- TGI [45]: 6140 nM
- GI50 [46]: 719 nM
- TGI [46]: 12100 nM
- GI50 [47]: 1090 nM
- TGI [47]: 2770 nM
- GI50 [48]: 538 nM
- TGI [48]: 5020 nM
- GI50 [49]: 583 nM
- TGI [49]: 11800 nM
- GI50 [50]: 812 nM
- TGI [50]: 14600 nM
- GI50 [51]: 2930 nM
- TGI [51]: 18000 nM
- GI50 [52]: 160 nM
- GI50 [53]: 638 nM
- TGI [53]: 12600 nM
- GI50 [54]: 1720 nM
- TGI [54]: 9440 nM
- GI50 [55]: 158 nM
- TGI [55]: 2320 nM
- GI50 [56]: 370 nM
- TGI [56]: 11700 nM
- GI50 [57]: 2150 nM
- TGI [57]: 7100 nM
- GI50 [58]: 444 nM
- TGI [58]: 2710 nM
- GI50 [59]: 96.4 nM
- TGI [59]: 1510 nM
